The test system of assay [1] is ET receptor. The following applies: cited from earlier work; for effect of pretreatment on systemic hemodynamic and regional circulatory effects of ET-1: BQ123 10 μg ICV, centrally administered ET-1; for effect on hemodynamics or regional blood circulation: specific ETB receptor agonists, separate experiments.
The nature of assay [2]: Effect of ET-1 infusion on brain blood flow in control and Aβ-treated rats. The class given is in vivo, rat. The following applies: 30 minutes infusion; Aβ-treated vs control rats. The protocol: Studies in 3-month-old rats to determine the effect of Aβ on systemic hemodynamics and regional blood circulation were performed. […] The effect of ET-1 on the brain blood flow of control and Aβ treated rats also was determined (FIG. 4).
Once infusion was stopped, a rebound increase in blood flow was observed. It can be inferred that Aβ increased the endogenous concentration of ET-1, leading to vasoconstriction. Accordingly, the administration of an ET-1 antagonist can cause a rebound increase in blood flow.

For assay [3], the system named is sympathetic nerve activity. The following applies: ET-1 90 ng; cited from earlier work.

Bridge positions count the residues as written; N and C are the ends. Square brackets hold non-standard residues; d marks the D form. Ends that are not written are not given here. Peptide text beside a SMILES is read from it.

Regarding `CC(C)C[C@@H]1NC(=O)[C@@H](C(C)C)NC(=O)[C@@H]2CCCN2C(=O)[C@@H](CC(=O)O)NC(=O)[C@@H](Cc2c[nH]c3ccccc23)NC1=O` [BQ123, cyclo(-D-Trp-D-Asp-Pro-D-Val-Leu-)] (cyclo(L[dW][dD]P[dV])), the “effect of pretreatment on systemic hemodynamic and regional circulatory effects of ET-1” value in assay [1] is “blocked”. For `CC(C)NCC(O)COc1cccc2ccccc12` (stereo not drawn) [propranolol], in assay [1], the “effect of pretreatment on systemic hemodynamic and regional circulatory effects of ET-1” value is reported as “blocked”. Take “ET-1: endothelin-1, a potent cerebrovascular vasoconstrictor peptide; ETA receptor agonist (CSCSSLMDKECVYFCHLDIIW; disulfide 1-15, 3-11; ends not checked; UniProt P05305 53-73, looked up)”: in assay [2], the “effect of ET-1 infusion on brain blood flow” value is on record as “more marked in Aβ-treated rats”. In assay [1] (45 ng ICV), the “cardiac output and stroke volume” value is “significant decreases”; the total peripheral resistance entry is “remained unchanged”. Also, the sympathetic nerve activity entry in assay [3] is “significantly decreased”. With “ET-2: ETA receptor agonist (CSCSSWLDKECVYFCHLDIIW; disulfide 1-15, 3-11; ends not checked; UniProt P20800 49-69, looked up)”, the “intensity of effects in comparison to ET-1 and SRT6b” value in assay [1] (ET-2 90 ng ICV) is recorded as “less intense”.

For the molecule ET-3: specific ETB receptor agonist, the “effect on hemodynamics or regional blood circulation” value in assay [1] was “did not affect”. With sarafotoxin 6c, in assay [1], the “effect on hemodynamics or regional blood circulation” value was “did not affect”.

Source of the values: patent US20100173872A1, “Method and Composition for Treating Alzheimer's Disease and Dementias of Vascular Origin” (THE BOARD OF TRUSTEES OF THE UNIVERSITY OF ILLINOIS, priority 2002, published 2010).
